Reference: patent US9980943B2, “Methods of treating muscular dystrophy” (BOARD OF REGENTS OF THE NEVADA SYSTEM OF HIGHER EDUCATION, …, priority 2013, dated 2018)

Tests used:
Type in all cases: cell-based, mouse
[1] = system: α7 integrin (LacZ reporter in α7βgal+/− myoblasts); assay: Myoblast α7+/LacZ integrin FDG assay (Burkin assay in myoblasts, 96-well); conditions: 96-well; for Burkin Assay in Myoblasts, value relative to DMSO: SU9516 analogs, N=3-6; for Burkin Assay in Myoblasts, signal relative to DMSO: α7+/LacZ myoblasts
[2] = system: α7 integrin (LacZ reporter in α7+/LacZ myotubes); assay: Myotube α7 integrin FDG assay (Burkin assay in myotubes, 96-well); conditions: for Burkin Assay in Myotubes, value relative to DMSO: SU9516 analogs, 96-well, N=3-6
[3] = system: β-galactosidase in CMV-LacZ C2C12 myoblasts; assay: CMV-LacZ secondary screen in C2C12 myoblasts (β-Gal stabilizing assay); conditions: for CMV-LACZ in Myoblasts, value relative to DMSO: SU9516 analogs, C2C12 CMV-LacZ, N=2; for CMV-LACZ in Myoblasts (β-galactosidase activity relative to DMSO): CMV-LacZ C2C12 myoblasts
Procedure, shortened: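 CMV-LacZ C2C12 line (clonal, FDG-screened); myoblasts/myotubes dosed 0.5–40 μM (0.5, 1, 5, 10, 20, 40 μM); n=2 per point; β-gal stabilization read-out.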

[4] = system: β-galactosidase in CMV-LacZ C2C12 myotubes; assay: CMV-LacZ secondary screen in C2C12 myotubes (β-Gal stabilizing assay); conditions: for CMV-LACZ in Myotubes, value relative to DMSO: SU9516 analogs, C2C12 CMV-LacZ, N=2; for CMV-LACZ in Myotubes, signal relative to DMSO: C2C12 CMV-LacZ myotubes, fold relative to DMSO
Procedure, shortened: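 First, C2C12 myoblasts were transfected with a linearized CMV-LACZ vector and clonal lines selected by FDG β-gal assay. Then cells were exposed to compounds at 0.5, 1, 5, 10, 20 and 40 μM in 96-well format, two replicates each, and β-gal measured.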

## Cc1ccc(/C=C2\C(=O)Nc3ccccc32)o1 [MLS000391588-01]
[1]; 0.5 uM
  Burkin Assay in Myoblasts, value relative to DMSO: 1.07
[1]; 1 uM
  Burkin Assay in Myoblasts, value relative to DMSO: 1.015
[1]; 5 uM
  Burkin Assay in Myoblasts, value relative to DMSO: 0.9119
[1]; 10 uM
  Burkin Assay in Myoblasts, value relative to DMSO: 0.8176
[1]; 20 uM
  Burkin Assay in Myoblasts, value relative to DMSO: 0.7804
[1]; 40 uM
  Burkin Assay in Myoblasts, value relative to DMSO: 0.3005
[2]; 0.5 uM
  Burkin Assay in Myotubes, value relative to DMSO: 1.073
[2]; 1 uM
  Burkin Assay in Myotubes, value relative to DMSO: 0.9563
[2]; 5 uM
  Burkin Assay in Myotubes, value relative to DMSO: 0.8994
[2]; 10 uM
  Burkin Assay in Myotubes, value relative to DMSO: 0.9356
[2]; 20 uM
  Burkin Assay in Myotubes, value relative to DMSO: 0.7631
[2]; 40 uM
  Burkin Assay in Myotubes, value relative to DMSO: 0.664
[3]; 0.5 uM
  CMV-LACZ in Myoblasts, value relative to DMSO: 1.0009
[3]; 1 uM
  CMV-LACZ in Myoblasts, value relative to DMSO: 0.7411
[3]; 5 uM
  CMV-LACZ in Myoblasts, value relative to DMSO: 0.9885
[3]; 10 uM
  CMV-LACZ in Myoblasts, value relative to DMSO: 1.0968
[3]; 20 uM
  CMV-LACZ in Myoblasts, value relative to DMSO: 1.4307
[3]; 40 uM
  CMV-LACZ in Myoblasts, value relative to DMSO: 1.1119
[4]; 0.5 uM
  CMV-LACZ in Myotubes, value relative to DMSO: 0.8400
[4]; 1 uM
  CMV-LACZ in Myotubes, value relative to DMSO: 1.0010
[4]; 5 uM
  CMV-LACZ in Myotubes, value relative to DMSO: 1.0019
[4]; 10 uM
  CMV-LACZ in Myotubes, value relative to DMSO: 0.9740
[4]; 20 uM
  CMV-LACZ in Myotubes, value relative to DMSO: 0.9212
[4]; 40 uM
  CMV-LACZ in Myotubes, value relative to DMSO: 0.9094

## O=C(O)CC1(c2ccccc2)C(=O)c2ccccc2C1=O [MLS000052969-01]
[1]; 0.5 uM
  Burkin Assay in Myoblasts, signal relative to DMSO: 1.25
[1]; 1 uM
  Burkin Assay in Myoblasts, signal relative to DMSO: 1.352
[1]; 5 uM
  Burkin Assay in Myoblasts, signal relative to DMSO: 0.9646
[1]; 10 uM
  Burkin Assay in Myoblasts, signal relative to DMSO: 0.8356
[1]; 20 uM
  Burkin Assay in Myoblasts, signal relative to DMSO: 0.8292
[1]; 40 uM
  Burkin Assay in Myoblasts, signal relative to DMSO: 0.7591
[2]; 0.5 uM
  Burkin Assay in Myotubes, α7 integrin LacZ reporter signal relative to DMSO: 0.9131
[2]; 1 uM
  Burkin Assay in Myotubes, α7 integrin LacZ reporter signal relative to DMSO: 1.058
[2]; 5 uM
  Burkin Assay in Myotubes, α7 integrin LacZ reporter signal relative to DMSO: 0.9184
[2]; 10 uM
  Burkin Assay in Myotubes, α7 integrin LacZ reporter signal relative to DMSO: 0.876
[2]; 20 uM
  Burkin Assay in Myotubes, α7 integrin LacZ reporter signal relative to DMSO: 0.6621
[2]; 40 uM
  Burkin Assay in Myotubes, α7 integrin LacZ reporter signal relative to DMSO: 0.5548
[3]; 0.5 uM
  CMV-LACZ in Myoblasts (β-galactosidase activity relative to DMSO): 0.8950
[3]; 1 uM
  CMV-LACZ in Myoblasts (β-galactosidase activity relative to DMSO): 1.0529
[3]; 5 uM
  CMV-LACZ in Myoblasts (β-galactosidase activity relative to DMSO): 0.9976
[3]; 10 uM
  CMV-LACZ in Myoblasts (β-galactosidase activity relative to DMSO): 1.0444
[3]; 20 uM
  CMV-LACZ in Myoblasts (β-galactosidase activity relative to DMSO): 1.1522
[3]; 40 uM
  CMV-LACZ in Myoblasts (β-galactosidase activity relative to DMSO): 0.6800
[4]; 0.5 uM
  CMV-LACZ in Myotubes, signal relative to DMSO: 0.9152
[4]; 1 uM
  CMV-LACZ in Myotubes, signal relative to DMSO: 1.1714
[4]; 5 uM
  CMV-LACZ in Myotubes, signal relative to DMSO: 1.0651
[4]; 10 uM
  CMV-LACZ in Myotubes, signal relative to DMSO: 0.8406
[4]; 20 uM
  CMV-LACZ in Myotubes, signal relative to DMSO: 0.9800
[4]; 40 uM
  CMV-LACZ in Myotubes, signal relative to DMSO: 0.9726

## Cc1ccccc1NC(=O)NCCCN1CCN(C)CC1 [MLS001197665-01]
[1]; 0.5 uM
  Burkin Assay in Myoblasts, signal relative to DMSO: 1.062
[1]; 1 uM
  Burkin Assay in Myoblasts, signal relative to DMSO: 1.069
[1]; 5 uM
  Burkin Assay in Myoblasts, signal relative to DMSO: 1.015
[1]; 10 uM
  Burkin Assay in Myoblasts, signal relative to DMSO: 0.9523
[1]; 20 uM
  Burkin Assay in Myoblasts, signal relative to DMSO: 1.094
[1]; 40 uM
  Burkin Assay in Myoblasts, signal relative to DMSO: 1.189
[2]; 0.5 uM
  Burkin Assay in Myotubes, α7 integrin LacZ reporter signal relative to DMSO: 1.115
[2]; 1 uM
  Burkin Assay in Myotubes, α7 integrin LacZ reporter signal relative to DMSO: 1.068
[2]; 5 uM
  Burkin Assay in Myotubes, α7 integrin LacZ reporter signal relative to DMSO: 0.973
[2]; 10 uM
  Burkin Assay in Myotubes, α7 integrin LacZ reporter signal relative to DMSO: 0.999
[2]; 20 uM
  Burkin Assay in Myotubes, α7 integrin LacZ reporter signal relative to DMSO: 1.001
[2]; 40 uM
  Burkin Assay in Myotubes, α7 integrin LacZ reporter signal relative to DMSO: 0.9583
[3]; 0.5 uM
  CMV-LACZ in Myoblasts (β-galactosidase activity relative to DMSO): 0.8584
[3]; 1 uM
  CMV-LACZ in Myoblasts (β-galactosidase activity relative to DMSO): 0.8347
[3]; 5 uM
  CMV-LACZ in Myoblasts (β-galactosidase activity relative to DMSO): 0.9214
[3]; 10 uM
  CMV-LACZ in Myoblasts (β-galactosidase activity relative to DMSO): 0.8403
[3]; 20 uM
  CMV-LACZ in Myoblasts (β-galactosidase activity relative to DMSO): 0.9556
[3]; 40 uM
  CMV-LACZ in Myoblasts (β-galactosidase activity relative to DMSO): 1.0267
[4]; 0.5 uM
  CMV-LACZ in Myotubes, signal relative to DMSO: 0.9415
[4]; 1 uM
  CMV-LACZ in Myotubes, signal relative to DMSO: 0.8756
[4]; 5 uM
  CMV-LACZ in Myotubes, signal relative to DMSO: 0.9771
[4]; 10 uM
  CMV-LACZ in Myotubes, signal relative to DMSO: 1.2593
[4]; 20 uM
  CMV-LACZ in Myotubes, signal relative to DMSO: 1.0047
[4]; 40 uM
  CMV-LACZ in Myotubes, signal relative to DMSO: 1.0741
